In general, IC50 refers to the point on the concentration scale where inhibition reaches its midpoint.

Read-outs that look alike come from different tables or passages of the source.

We go through 19 molecules from patent US10307413B2, “Tetrahydro- and dihydro-isoquinoline PRMT5 inhibitors and uses thereof” (Epizyme, Inc., priority 2013, dated 2019).

For one assay, the target named is PRMT5/MEP50 (Homo sapiens (Human), UniProt O14744). The assay is described as follows: PRMT5 Biochemical Assay (PRMT5/MEP50 enzyme assay on peptide substrate, 3H-SAM Flashplate). The conditions noted are these: PRMT5 biochemical assay. The essentials:
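Radiometric methylation of a biotin-tagged H4(1-15) peptide by human PRMT5/MEP50 from baculovirus/Sf9, with ³H-SAM incorporation read on streptavidin Flashplates. Buffer: Bicine pH 7.6, TCEP, BSG, Tween20; compound preincubated 30 min at 25 °C; stopped with 600 µM final unlabeled SAM. DMSO and SAH controls; IC50 from fitted % inhibition.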

Assay [1] deals with symmetric di-methyl arginine in Z-138 cells. The assay is described as follows: Z-138 Methylation Assay (In Cell Western for symmetric di-methyl arginine and DNA content). The assay is classed as cell-based. The conditions noted are these: Homo sapiens, In Cell Western methylation, read-out: ICW EC50. The method in brief: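 Z-138 cells (50,000 cells/mL) treated with compound 96 h at 37 °C, then fixed and stained for symmetric di-methyl arginine (800 nm) with DRAQ5 DNA counterstain (700 nm) on Licor Odyssey.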

A further assay deals with Z-138 cell line. The assay is described as follows: Z-138 Proliferation Assay (Cell Titer Glo, 5 days). The settings on record: Homo sapiens, read-out: Proliferation EC50. The assay is classed as cell-based. The method in brief:
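Z-138 cells exposed 5 days at 37 °C, 5% CO2 to nine-point 3-fold dilutions (final top 20 μM, 0.2% DMSO), in triplicate. Viability read as ATP by CellTiter-Glo luminescence; IC50 from 4-parameter fit of normalized dose-response curves.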
Background: In ATP-based viability assays light output follows the ATP content of the culture.

The mark [2] stands for this setting: 120 h, Z-138 cells, 5 days, Cell Titer Glo.

Chain of PRMT5/MEP50 (O14744 other isoform, or with tags, fused parts or gaps): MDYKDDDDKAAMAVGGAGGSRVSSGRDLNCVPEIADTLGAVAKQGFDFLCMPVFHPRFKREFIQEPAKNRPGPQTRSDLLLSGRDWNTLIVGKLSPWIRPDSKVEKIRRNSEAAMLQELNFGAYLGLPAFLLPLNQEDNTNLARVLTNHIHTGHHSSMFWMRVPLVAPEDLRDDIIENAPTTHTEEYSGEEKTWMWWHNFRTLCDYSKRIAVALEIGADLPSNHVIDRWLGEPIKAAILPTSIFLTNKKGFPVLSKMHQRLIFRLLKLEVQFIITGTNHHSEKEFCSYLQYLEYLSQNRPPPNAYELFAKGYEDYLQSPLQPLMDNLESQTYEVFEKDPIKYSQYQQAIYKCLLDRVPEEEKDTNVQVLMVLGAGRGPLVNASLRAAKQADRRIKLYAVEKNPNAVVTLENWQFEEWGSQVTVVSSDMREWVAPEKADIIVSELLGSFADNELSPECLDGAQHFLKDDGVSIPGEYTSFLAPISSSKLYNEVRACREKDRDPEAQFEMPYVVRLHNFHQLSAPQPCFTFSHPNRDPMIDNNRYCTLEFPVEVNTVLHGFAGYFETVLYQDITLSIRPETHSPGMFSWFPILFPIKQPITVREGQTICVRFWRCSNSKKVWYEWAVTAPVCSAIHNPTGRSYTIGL
Chain of PRMT5/MEP50 (Q9BQA1 other isoform, or with tags, fused parts or gaps partner): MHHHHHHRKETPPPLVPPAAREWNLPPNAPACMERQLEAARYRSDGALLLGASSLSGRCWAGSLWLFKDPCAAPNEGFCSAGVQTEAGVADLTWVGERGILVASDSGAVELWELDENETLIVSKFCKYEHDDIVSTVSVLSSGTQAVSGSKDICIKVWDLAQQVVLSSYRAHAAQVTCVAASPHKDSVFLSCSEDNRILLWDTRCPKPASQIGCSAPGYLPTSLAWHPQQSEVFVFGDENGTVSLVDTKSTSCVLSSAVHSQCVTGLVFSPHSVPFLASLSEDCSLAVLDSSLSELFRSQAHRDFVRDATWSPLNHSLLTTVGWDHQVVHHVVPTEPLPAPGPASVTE

In the case of `CC(=O)N1CCC(Nc2cc(C(=O)NC(C)C(O)CN3CCc4ccccc4C3)ncn2)CC1` (stereo not drawn) [Compound 536], the IC50 at PRMT5/MEP50 was under 100 nM. Besides, the figures for the EC50 (in assay [1]; in the assay with Z-138 cell line (setting [2])) were under 100 nM and 101 to 1000 nM, respectively.
As to `COC(CNC(=O)c1cc(NC2CCNCC2)ncn1)CN1CCc2ccccc2C1` (stereo not drawn) [Compound 538], the IC50 on PRMT5/MEP50 was 1000 to 10000 nM. Moreover, the EC50 was over 1000 nM in assay [1] and over 5000 nM with Z-138 cell line (setting [2]).
For `COC(CNC(=O)c1cc(NC2CCN(C)CC2)ncn1)CN1CCc2ccccc2C1` (stereo not drawn) [Compound 540] the same measures were 1000 to 10000 nM, over 1000 nM and over 5000 nM.
Consider `COC(CNC(=O)c1cc(NC2CCN(C(C)=O)CC2)ncn1)CN1CCc2ccccc2C1` (stereo not drawn) [Compound 542], for which the IC50 at PRMT5/MEP50 fell in the range of 101 to 1000 nM. Moreover, the EC50 was 101 to 1000 nM in assay [1] and over 5000 nM with Z-138 cell line (setting [2]).
For `O=C(NC[C@H](O)CN1CCc2ccccc2C1)c1cnnc(NC2CCOC2)c1` (stereo partly drawn) [Compound 544], on PRMT5/MEP50, the IC50 is under 100 nM. Moreover, the values for the EC50 (in assay [1]; in the assay on Z-138 cell line (setting [2])) were under 100 nM and 101 to 1000 nM, respectively.
As for `O=C(NC[C@H](O)CN1CCc2ccccc2C1)c1cnnc(NC2COC2)c1` [Compound 545], on PRMT5/MEP50, the IC50 is under 100 nM. Also, the results for the EC50 (in assay [1]; in the assay with Z-138 cell line (setting [2])) were under 100 nM and 1000 to 10000 nM, respectively.
As for `CC(=O)N1CC(Nc2cc(C(=O)NC[C@H](O)CN3CCc4ccccc4C3)nc(C(C)(C)C)n2)C1` [Compound 546], on PRMT5/MEP50, the IC50 is under 100 nM. Further, the EC50 (in assay [1]; in the assay with Z-138 cell line (setting [2])) was under 100 nM throughout.
On to `O=C(NC[C@H](O)CN1CCc2ccccc2C1)c1cc(NC2COC2)nc(NC2COC2)n1` [Compound 547], for which the concentration for half-maximal inhibition (IC50) at PRMT5/MEP50 was under 100 nM. Moreover, the EC50 (in assay [1]; with Z-138 cell line (setting [2])) was under 100 nM throughout.
As to `O=C(NC[C@H](O)CN1CCc2ccccc2C1)C1=CC2=N[C@H](CO)CN2C=N1` [Compound 548], the IC50 on PRMT5/MEP50 is 101 to 1000 nM. In addition, the figures for the EC50 (in assay [1]; in the assay on Z-138 cell line (setting [2])) were over 1000 nM and over 5000 nM, respectively.
On to `O=C(NC[C@H](O)CN1CCc2ccccc2C1)c1cc(NC2CCNCC2)ccn1` [Compound 549], for which, on PRMT5/MEP50, the IC50 was under 100 nM. Further, the EC50 was 101 to 1000 nM in assay [1] and over 5000 nM in the assay on Z-138 cell line (setting [2]).
For `COCCN1CCC(Nc2ccnc(C(=O)NC[C@H](O)CN3CCc4ccccc4C3)c2)CC1` [Compound 550] the same measures were under 100 nM, under 100 nM and 1000 to 10000 nM.
Turning to `CC(=O)N1CCC(Nc2ccnc(C(=O)NC[C@H](O)CN3CCc4ccccc4C3)c2)CC1` [Compound 551], at PRMT5/MEP50, the concentration for half-maximal inhibition (IC50) is under 100 nM. The EC50 (in assay [1]; in the assay with Z-138 cell line (setting [2])) was under 100 nM in each case.
As to `CC(NC(=O)c1cc(NC2CCN(C(=O)C3CC3)CC2)ncn1)C(O)CN1CCc2ccccc2C1` (stereo not drawn) [Compound 552], the IC50 on PRMT5/MEP50 was under 100 nM. Besides, the EC50 in assay [1] is under 100 nM; in the assay on Z-138 cell line (setting [2]) it was 101 to 1000 nM.
Turning to `COC(CNC(=O)c1cc(NC2CCN(C(=O)C3CC3)CC2)ncn1)CN1CCc2ccccc2C1` (stereo not drawn) [Compound 553], on PRMT5/MEP50, the IC50 is under 100 nM. The EC50 in assay [1] was 101 to 1000 nM; in the assay with Z-138 cell line (setting [2]) it was over 5000 nM.
Take `CSCCNc1cc(C(=O)NC[C@H](O)CN2CCc3ccccc3C2)ncn1` [Compound 554]: the IC50 at PRMT5/MEP50 was under 100 nM. The EC50 in assay [1] was under 100 nM; with Z-138 cell line (setting [2]), 101 to 1000 nM.
Regarding `CS(=O)(=O)CCNc1cc(C(=O)NC[C@H](O)CN2CCc3ccccc3C2)ncn1` [Compound 555], at PRMT5/MEP50, the IC50 was under 100 nM. Also, the values for the EC50 (in assay [1]; with Z-138 cell line (setting [2])) were 101 to 1000 nM and 1000 to 10000 nM, respectively.
In the case of `CCSCCNc1cc(C(=O)NC[C@H](O)CN2CCc3ccccc3C2)ncn1` [Compound 556], the IC50 at PRMT5/MEP50 is under 100 nM. Moreover, the EC50 in assay [1] was under 100 nM; in the assay with Z-138 cell line (Z-138, 120 h), 101 to 1000 nM.
On to `O=C(NC[C@H](O)CN1CCc2ccccc2C1)c1cc(NC2CC3(COC3)C2)ncn1` [Compound 557], for which, at PRMT5/MEP50, the IC50 is under 100 nM. Further, the EC50 (in assay [1]; in the assay on Z-138 cell line (setting [2])) was under 100 nM throughout.
As to `O=C(NC[C@H](O)CN1CCc2ccccc2C1)c1cc(N[C@H]2C[C@H](N3CCOCC3)C2)ncn1` [Compound 558], on PRMT5/MEP50, the IC50 is under 100 nM. Further, the EC50 in assay [1] is under 100 nM; in the assay on Z-138 cell line (setting [2]), 101 to 1000 nM.
